Test results published in patent US6858585B1, “Cyclic depsipeptides and drugs containing the same as the active ingredient” (Nisshin Seifun Group Inc., priority 1996, dated 2005).
No end group written: not given here.

What was measured:
Format in all cases: cell-based, human
[1] = system: apolipoprotein A1 production in Hep G2 cells; assay: Production of apolipoprotein A1 in Hep G2 cells, enzyme immunoassay of cultured broth (Example 2); settings: Conc. 1 μM, 7 hours, control = 100
Experimental: (§1) First, 1 ml portions of Hep G2 cells at 1×10^5 cells/ml suspended in D-MEM medium containing 10% fetal bovine serum were poured into a 24-well tissue culture plate and cultivation was carried out at 37° C. under atmosphere of a mixed gas composed of 5% carbon dioxide and 95% air for 3 days. Thereafter, the medium was removed by means of a pipette, 1 ml of fresh D-MEM medium was added and cultivation was again carried out at 37° C. under atmosphere of a mixed gas composed of 5% carbon dioxide and 95% air for one day. Then, the medium was removed by means of a pipette and washed three times with 0.5 ml of fresh D-MEM medium. 1 ml of fresh D-MEM medium was added and further 10 μl of a solution of the cyclic depsipeptide of the invention or Compound 1, 4, 5, 6, 7 or 8 dissolved in methanol at the concentration as shown in Table 3 was added. […]
It was again washed three times with 300 μl of PBS, 100 μl of the above Cultured Broths 7-10 was added and the mixture was allowed to stand at room temperature for 2 hours. […] The reaction was discontinued by the addition of 100 μl of 2N sulfuric acid, and absorbance at 490 nm was measured using absorbance at 650 nm as a control. An absolute amount of apolipoprotein A1 was determined upon a calibration curve drawn up when a commercially available apolipoprotein Al (manufactured by Sigma, U.S.A.) was used as a standard. […]

[2] = system: apolipoprotein E production in Hep G2 cells; assay: Production of apolipoprotein E in Hep G2 cells, enzyme immunoassay of cultured broth (Example 2: 7 h with compound); settings: Conc. 1 μM, control = 100
Experimental: The mouse antihuman apolipoprotein E monocional antibody (manufactured by BYOSIS, S. A., France) was dissolved in a 0.05M aqueous sodium hydrogencarbonate solution (pH 9.5) at a concentration of […]. 50 μl of this solution was poured in portions into a Nunk immunoplate, which was then allowed to stand at 4° C. for 16 hours. After washing thrice with 300 μl of PBS, 300 μl of the blocking solution was added and the mixture was allowed to stand at 37° C. for 2 hours.
It was again washed three times with 300 μl of PBS, 50 μl of the above cultured broth 1 was added and the mixture was allowed to stand at room temperature for 2 hours. After washing three times with 300 μl of PBS-T, 50 μl of a 3000-fold diluted solution (10% aqueous Block Ace solution) of goat anti-apolipoprotein E polyclonal antibody (manufactured by Chemicon Co., Ltd., U.S.A.) was added and the mixture was allowed to stand at room temperature for 2 hours. […] The reaction was discontinued by the addition of 100 μl of 2N sulfuric acid, and absorbance at 490 nm was measured using absorbance at 650 nm as a control. An absolute amount of apolipoprotein E in cultured broths 1-6 was determined upon a calibration curve drawn up when a commercially available apolipoprotein E (Chemicon Co., Ltd., U.S.A.) was used as a standard. […]

[3] = system: apolipoprotein B production in Hep G2 cells; assay: Production of apolipoprotein B in Hep G2 cells, enzyme immunoassay of cultured broth (Example 2); settings: Conc. 1 μM, 7 hours, control = 100
Experimental: as §1, with “medium.” for “medium. 1 ml of fresh D-MEM medium was added and further 10 μl of a solution of the cyclic depsipeptide of the invention or Compound 1, 4, 5, 6, 7 or 8 dissolved in methanol at the concentration as shown in Table 3 was added.”
The sheep antihuman apolipoprotein B IgG fraction (manufactured by Bindingsite Co., Ltd., U.K.) was dissolved in a 0.05M aqueous sodium hydrogencarbonate solution (pH 9.5) at a concentration of 10 μg/ml. […] The reaction was discontinued by the addition of 100 μl of 2N sulfuric acid, and absorbance at 490 nm was measured using absorbance at 650 nm as a control. The absorbance obtained was defined as that of apolipoprotein B. An absolute amount of apolipoprotein B was determined upon a calibration curve drawn up when a commercially available low density lipoprotein (manufactured by Sigma, U.S.A.) was used as a standard. […]

Question: Which results are given for “Compound 7 (QLLVDLI; ester (positions not given here); also: cyclic depsipeptide, ring closure places not given here)”?
Answer: Relative amount of apolipoprotein A1 (%) [1]: 135%; Relative amount of apolipoprotein E (%) [2]: 163%; Relative amount of apolipoprotein B (%) [3]: 76%
